{
  "source": "patent US9005587B2",
  "about": "“Anti-bacterial and mineralizing calcium phosphate compositions” (New York University, priority 2011, dated 2015)",
  "origin": "cited, not measured here",
  "test_system": "bacteria",
  "conditions": "in vitro; Rolla et al. 1975",
  "data": [
    {"molecule": "F", "note": "[F−, fluoride]", "values": [
      {"measurement": "F− in solution needed to inhibit adsorption of bacteria on hydroxyapatite", "value": "approximately 9,500 ppm"}
    ]}
  ]
}
